# Measured values as given in PubChem BioAssay AID2060908 (Molecular Pharmacology Branch, DTP, NCI, 2025).
# System: 186277-243-T-J2-PDC complex spheroids, viability
# Assay: Anticancer human tumor 186277-243-T-J2-PDC patient-derived colon adenocarcinoma cell line growth inhibition [RAS]
# Conditions: for IC50: curve of first compound; for viability, T/C: stronger effect = lower value
# Procedure, shortened: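 Tumour cells grown as complex spheroids with HUVEC endothelial cells and mesenchymal stem cells, treated with RAS pathway inhibitor combinations. Each agent spans half-log steps from near clinical Cmax, or 10 microM where Cmax is unknown.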
# [1] = second compound 0.000949 µM, first compound 0.0316 µM
# [2] = second compound 0.000949 µM, first compound 0.1 µM
# [3] = second compound 0.000949 µM, first compound 0.316 µM
# [4] = second compound 0.000949 µM, first compound 1 µM
# [5] = second compound 0.000949 µM, first compound 3.16 µM
# [6] = second compound 0.000949 µM, first compound 10 µM
# [7] = second compound 0.003 µM, first compound 0.0316 µM
# [8] = second compound 0.003 µM, first compound 0.1 µM
# [9] = second compound 0.003 µM, first compound 0.316 µM
# [10] = second compound 0.003 µM, first compound 1 µM
# [11] = second compound 0.003 µM, first compound 3.16 µM
# [12] = second compound 0.003 µM, first compound 10 µM
# [13] = second compound 0.00949 µM, first compound 0.0316 µM
# [14] = second compound 0.00949 µM, first compound 0.1 µM
# [15] = second compound 0.00949 µM, first compound 0.316 µM
# [16] = second compound 0.00949 µM, first compound 1 µM
# [17] = second compound 0.00949 µM, first compound 3.16 µM
# [18] = second compound 0.00949 µM, first compound 10 µM
# [19] = second compound 0.03 µM, first compound 0.0316 µM
# [20] = second compound 0.03 µM, first compound 0.1 µM
# [21] = second compound 0.03 µM, first compound 0.316 µM
# [22] = second compound 0.03 µM, first compound 1 µM
# [23] = second compound 0.03 µM, first compound 3.16 µM
# [24] = second compound 0.03 µM, first compound 10 µM
# [25] = second compound 0.0949 µM, first compound 0.0316 µM
# [26] = second compound 0.0949 µM, first compound 0.1 µM
# [27] = second compound 0.0949 µM, first compound 0.316 µM
# [28] = second compound 0.0949 µM, first compound 1 µM
# [29] = second compound 0.0949 µM, first compound 3.16 µM
# [30] = second compound 0.0949 µM, first compound 10 µM
# [31] = second compound 0.3 µM, first compound 0.0316 µM
# [32] = second compound 0.3 µM, first compound 0.1 µM
# [33] = second compound 0.3 µM, first compound 0.316 µM
# [34] = second compound 0.3 µM, first compound 1 µM
# [35] = second compound 0.3 µM, first compound 3.16 µM
# [36] = second compound 0.3 µM, first compound 10 µM
# 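Further: spheroids exposed to compounds for 7 days before viability read.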
smiles,measurement,setting,value
CC1(O)CCCC1n1c(=O)c(C(F)F)cc2cnc(NC3CCN(S(C)(=O)=O)CC3)nc21 (stereo not drawn) + CCn1c(-c2cccnc2C(C)OC)c2c3cc(ccc31)N1CCOC(CC(NC(=O)C(C(C)C)N(C)C(=O)C3(F)CCN(C(=O)C#CC(C)(C)N(C)C)CC3)C(=O)N3CCCC(N3)C(=O)OCC(C)(C)C2)C1,IC50,second compound 0.000949 µM,4330 nM
same,IC50,second compound 0.003 µM,4480 nM
same,IC50,second compound 0.00949 µM,4380 nM
same,IC50,second compound 0.03 µM,4350 nM
same,IC50,second compound 0.0949 µM,3590 nM
same,IC50,second compound 0.3 µM,1170 nM
same,"viability, T/C",[1],129%
same,"viability, T/C",[2],113%
same,"viability, T/C",[3],122%
same,"viability, T/C",[4],86.7%
same,"viability, T/C",[5],74.8%
same,"viability, T/C",[6],1.88%
same,"viability, T/C",[7],96.5%
same,"viability, T/C",[8],122%
same,"viability, T/C",[9],104%
same,"viability, T/C",[10],93.2%
same,"viability, T/C",[11],71.7%
same,"viability, T/C",[12],2.18%
same,"viability, T/C",[13],116%
same,"viability, T/C",[14],116%
same,"viability, T/C",[15],115%
same,"viability, T/C",[16],84.3%
same,"viability, T/C",[17],75.7%
same,"viability, T/C",[18],2.28%
same,"viability, T/C",[19],111%
same,"viability, T/C",[20],117%
same,"viability, T/C",[21],108%
same,"viability, T/C",[22],80.3%
same,"viability, T/C",[23],77.2%
same,"viability, T/C",[24],1.84%
same,"viability, T/C",[25],108%
same,"viability, T/C",[26],113%
same,"viability, T/C",[27],80.9%
same,"viability, T/C",[28],73.3%
same,"viability, T/C",[29],69%
same,"viability, T/C",[30],1.68%
same,"viability, T/C",[31],114%
same,"viability, T/C",[32],91.7%
same,"viability, T/C",[33],56.2%
same,"viability, T/C",[34],56.8%
same,"viability, T/C",[35],53.8%
same,"viability, T/C",[36],0.94%
CC(Nc1ccc2c(c1)OCCn1cc(N3C(=O)OCC3C(F)F)nc1-2)C(N)=O (stereo not drawn) + CCn1c(-c2cc(N3CCN(C)CC3)cnc2C(C)OC)c2c3cc(ccc31)-c1csc(n1)CC(NC(=O)C1CC1C)C(=O)N1CCCC(N1)C(=O)OCC(C)(C)C2,IC50,second compound 0.000949 µM,347 nM
same,IC50,second compound 0.003 µM,88.5 nM
same,IC50,second compound 0.00949 µM,< 31.6 nM
same,IC50,second compound 0.03 µM,< 31.6 nM
same,IC50,second compound 0.0949 µM,< 31.6 nM
same,IC50,second compound 0.3 µM,< 31.6 nM
same,"viability, T/C",[1],97.7%
same,"viability, T/C",[2],86.3%
same,"viability, T/C",[3],48.7%
same,"viability, T/C",[4],27.3%
same,"viability, T/C",[5],14.1%
same,"viability, T/C",[6],7.59%
same,"viability, T/C",[7],81.8%
same,"viability, T/C",[8],46.6%
same,"viability, T/C",[9],16.8%
same,"viability, T/C",[10],8.63%
same,"viability, T/C",[11],3.59%
same,"viability, T/C",[12],2.34%
same,"viability, T/C",[13],28%
same,"viability, T/C",[14],14.8%
same,"viability, T/C",[15],4.68%
same,"viability, T/C",[16],2.07%
same,"viability, T/C",[17],1.18%
same,"viability, T/C",[18],0.72%
same,"viability, T/C",[19],8.29%
same,"viability, T/C",[20],4.59%
same,"viability, T/C",[21],1.59%
same,"viability, T/C",[22],0.91%
same,"viability, T/C",[23],0.49%
same,"viability, T/C",[24],0.23%
same,"viability, T/C",[25],4.51%
same,"viability, T/C",[26],2.41%
same,"viability, T/C",[27],1.01%
same,"viability, T/C",[28],0.59%
same,"viability, T/C",[29],0.45%
same,"viability, T/C",[30],0.24%
same,"viability, T/C",[31],3.65%
same,"viability, T/C",[32],2.08%
same,"viability, T/C",[33],0.89%
same,"viability, T/C",[34],0.55%
same,"viability, T/C",[35],0.35%
same,"viability, T/C",[36],0.29%
NC1c2ccccc2OC12CCN(c1cnc3c(N4CCCc5ncccc54)n[nH]c3n1)CC2 (stereo not drawn) + C#Cc1c(F)ccc2cc(O)cc(-c3ncc4c(N5CC6CCC(C5)N6)nc(OCC56CCCN5CC(F)C6)nc4c3F)c12,IC50,second compound 0.0316 µM,< 31.6 nM
same,IC50,second compound 0.1 µM,< 31.6 nM
same,IC50,second compound 0.316 µM,< 31.6 nM
same,IC50,second compound 1 µM,< 31.6 nM
same,IC50,second compound 3.16 µM,< 31.6 nM
same,IC50,second compound 10 µM,< 31.6 nM
same,"viability, T/C","second compound 0.0316 µM, first compound 0.0316 µM",39.1%
same,"viability, T/C","second compound 0.0316 µM, first compound 0.1 µM",14.9%
same,"viability, T/C","second compound 0.0316 µM, first compound 0.316 µM",8.55%
same,"viability, T/C","second compound 0.0316 µM, first compound 1 µM",7.47%
same,"viability, T/C","second compound 0.0316 µM, first compound 3.16 µM",5.16%
same,"viability, T/C","second compound 0.0316 µM, first compound 10 µM",3.58%
same,"viability, T/C","second compound 0.1 µM, first compound 0.0316 µM",14.2%
same,"viability, T/C","second compound 0.1 µM, first compound 0.1 µM",9.2%
same,"viability, T/C","second compound 0.1 µM, first compound 0.316 µM",7.59%
same,"viability, T/C","second compound 0.1 µM, first compound 1 µM",7.67%
same,"viability, T/C","second compound 0.1 µM, first compound 3.16 µM",5.13%
same,"viability, T/C","second compound 0.1 µM, first compound 10 µM",3.21%
same,"viability, T/C","second compound 0.316 µM, first compound 0.0316 µM",10.8%
same,"viability, T/C","second compound 0.316 µM, first compound 0.1 µM",8.96%
same,"viability, T/C","second compound 0.316 µM, first compound 0.316 µM",7.32%
same,"viability, T/C","second compound 0.316 µM, first compound 1 µM",7.04%
same,"viability, T/C","second compound 0.316 µM, first compound 3.16 µM",5.5%
same,"viability, T/C","second compound 0.316 µM, first compound 10 µM",3.89%
same,"viability, T/C","second compound 1 µM, first compound 0.0316 µM",9.12%
same,"viability, T/C","second compound 1 µM, first compound 0.1 µM",7.57%
same,"viability, T/C","second compound 1 µM, first compound 0.316 µM",7.39%
same,"viability, T/C","second compound 1 µM, first compound 1 µM",5.61%
same,"viability, T/C","second compound 1 µM, first compound 3.16 µM",4.48%
same,"viability, T/C","second compound 1 µM, first compound 10 µM",3.29%
same,"viability, T/C","second compound 3.16 µM, first compound 0.0316 µM",8.98%
same,"viability, T/C","second compound 3.16 µM, first compound 0.1 µM",6.65%
same,"viability, T/C","second compound 3.16 µM, first compound 0.316 µM",5.07%
same,"viability, T/C","second compound 3.16 µM, first compound 1 µM",4.41%
same,"viability, T/C","second compound 3.16 µM, first compound 3.16 µM",5.32%
same,"viability, T/C","second compound 3.16 µM, first compound 10 µM",2.82%
same,"viability, T/C","second compound 10 µM, first compound 0.0316 µM",6.21%
same,"viability, T/C","second compound 10 µM, first compound 0.1 µM",5.08%
same,"viability, T/C","second compound 10 µM, first compound 0.316 µM",3.47%
same,"viability, T/C","second compound 10 µM, first compound 1 µM",2.88%
same,"viability, T/C","second compound 10 µM, first compound 3.16 µM",1.6%
same,"viability, T/C","second compound 10 µM, first compound 10 µM",0.47%
Nc1ccn(C2OC(CO)C(O)C2(F)F)c(=O)n1 (stereo not drawn) + CCn1c(-c2cc(N3CCN(C)CC3)cnc2C(C)OC)c2c3cc(ccc31)-c1csc(n1)CC(NC(=O)C1CC1C)C(=O)N1CCCC(N1)C(=O)OCC(C)(C)C2,IC50,second compound 0.000949 µM,4.76 nM
same,IC50,second compound 0.003 µM,< 3.16 nM
same,IC50,second compound 0.00949 µM,< 3.16 nM
same,IC50,second compound 0.03 µM,< 3.16 nM
same,IC50,second compound 0.0949 µM,< 3.16 nM
same,IC50,second compound 0.3 µM,< 3.16 nM
same,"viability, T/C","second compound 0.000949 µM, first compound 0.00316 µM",73%
same,"viability, T/C","second compound 0.000949 µM, first compound 0.01 µM",8.42%
same,"viability, T/C",[1],6.7%
same,"viability, T/C",[2],6.74%
same,"viability, T/C",[3],5.65%
same,"viability, T/C",[4],6.26%
same,"viability, T/C","second compound 0.003 µM, first compound 0.00316 µM",48%
same,"viability, T/C","second compound 0.003 µM, first compound 0.01 µM",6.35%
same,"viability, T/C",[7],5.14%
same,"viability, T/C",[8],4.45%
same,"viability, T/C",[9],4.85%
same,"viability, T/C",[10],4.99%
same,"viability, T/C","second compound 0.00949 µM, first compound 0.00316 µM",12.7%
same,"viability, T/C","second compound 0.00949 µM, first compound 0.01 µM",6.13%
same,"viability, T/C",[13],4.72%
same,"viability, T/C",[14],4.79%
same,"viability, T/C",[15],5.02%
same,"viability, T/C",[16],4.12%
same,"viability, T/C","second compound 0.03 µM, first compound 0.00316 µM",7.84%
same,"viability, T/C","second compound 0.03 µM, first compound 0.01 µM",5.11%
same,"viability, T/C",[19],4.83%
same,"viability, T/C",[20],4.21%
same,"viability, T/C",[21],4.75%
same,"viability, T/C",[22],3.8%
same,"viability, T/C","second compound 0.0949 µM, first compound 0.00316 µM",5.28%
same,"viability, T/C","second compound 0.0949 µM, first compound 0.01 µM",4.76%
same,"viability, T/C",[25],4.18%
same,"viability, T/C",[26],3.97%
same,"viability, T/C",[27],3.99%
same,"viability, T/C",[28],3.27%
same,"viability, T/C","second compound 0.3 µM, first compound 0.00316 µM",5.42%
same,"viability, T/C","second compound 0.3 µM, first compound 0.01 µM",4.54%
same,"viability, T/C",[31],3.86%
same,"viability, T/C",[32],3.78%
same,"viability, T/C",[33],3.81%
same,"viability, T/C",[34],3.23%
